{"source": "paper PMC6199744", "about": "“Development of Chemical Proteomics for the Folateome and Analysis of the Kinetoplastid Folateome” (ACS Infectious Diseases, 2018)", "key": {"[1]": {"system": "HYPOTHETICAL PROTEIN, CONSERVED (TB427.05.3680)", "assay": "Multitargeted bead mixture competition", "type": "binding", "settings": "free ligand 100 μM, T. brucei lysate"}, "[2]": {"system": "TB09.211.1690", "assay": "Multitargeted bead mixture competition", "type": "binding", "settings": "free ligand 100 μM, T. brucei lysate"}, "[3]": {"system": "TB927.7.1340", "assay": "Multitargeted bead mixture competition", "type": "binding", "settings": "free ligand 100 μM, T. brucei lysate"}, "[4]": {"system": "PEPTIDYL-PROLYL CIS-TRANS ISOMERASE (CYCLOPHILIN- (TB427TMP.211.1350))", "assay": "Multitargeted bead mixture competition", "type": "binding", "settings": "free ligand 100 μM, T. brucei lysate"}, "[5]": {"system": "PROTEIN KINASE, PUTATIVE (Tb427.03.1570)", "assay": "Multitargeted bead mixture competition", "type": "binding", "settings": "free ligand 100 μM, T. brucei lysate"}, "[6]": {"system": "T. brucei", "set-up": "method as in ref 5 (SI)", "settings": "ref 5 (SI); read-out: EC50 against T. brucei, in vitro cell growth; cited from earlier work"}, "[7]": {"target": "TbTS", "settings": "direct enzyme assays; read-out: TbTS Ki; cited from earlier work"}, "[8]": {"system": "MTHF complex (DHCH protein in humans)", "assay": "Multitargeted bead mixture competition, HeLa cell extract", "type": "binding, human", "settings": "bead mixture; HeLa cell extract"}}}
{"smiles": "Nc1nc2cccc(-c3ccccc3)c2n1Cc1ccc(Cl)c(Cl)c1", "note": "[compound 3]", "values": [{"measurement": "percentage of competition from bead binding", "setting": "[1]", "value": 68, "unit": "%"}, {"measurement": "percentage of competition from bead binding", "setting": "[2]", "value": 39, "unit": "%"}, {"measurement": "percentage of competition from bead binding", "setting": "[3]", "value": 40, "unit": "%"}, {"measurement": "percentage of competition from bead binding", "setting": "[4]", "value": 38, "unit": "%"}, {"measurement": "percentage of competition from bead binding", "setting": "[5]", "value": -2, "unit": "%"}, {"measurement": "EC50", "setting": "[6]", "value": 10, "unit": "µM"}]}
{"smiles": "Nc1nc2[nH]cc(CCc3ccc(C(=O)N[C@@H](CCC(=O)O)C(=O)O)cc3)c2c(=O)[nH]1", "note": "[PTX, pemetrexed]", "values": [{"measurement": "Ki", "setting": "[7]", "value": 20.5, "unit": "µM"}]}
{"smiles": "CCCCCCOc1ccc(Cc2cnc(N)nc2N)cc1", "note": "[compound 1]", "values": [{"measurement": "inhibition, all subunits of the MTHF complex", "setting": "[8]", "value": "> 70", "unit": "%"}]}
